From ChEMBL document CHEMBL6127088, “Novel 2-aminothiazole analogues both as polymyxin E synergist and antimicrobial agent against multidrug-resistant Gram-positive bacteria” (2024)
Converted amounts (≈) assume the structure as drawn.

What was measured:
Type in all cases: functional
[1] = test system: Staphylococcus aureus; assay: Antimicrobial activity against methicillin/ofloxacin-resistant Staphylococcus aureus ATCC 43300 assessed as minimum inhibitory concentration incubated for 18 hrs by broth microdilution method
[2] = test system: Acinetobacter baumannii; assay: Synergistic antimicrobial activity against Acinetobacter baumannii ATCC 19606 assessed as fractional inhibitory concentration index in presence of polymyxin E incubated for 18 to 20 hrs by chequerboard assay; conditions: time 18-20 hrs
[3] = test system: Acinetobacter baumannii; assay: Antimicrobial activity against Acinetobacter baumannii ATCC 19606 incubated for 18 hrs by broth microdilution method
[4] = test system: Bacillus subtilis; assay: Antimicrobial activity against Bacillus subtilis ATCC 20678 incubated for 18 hrs by broth microdilution method
[5] = test system: Enterococcus faecalis; assay: Antimicrobial activity against vancomycin-resistant Enterococcus faecalis ATCC 51299 assessed as minimum inhibitory concentration incubated for 18 hrs by broth microdilution method

Row | Structure (SMILES) | MIC [1] [µg/mL] | fractional inhibitory concentration index (FICI) [2] | MIC [3] [µg/mL] | MIC [4] [µg/mL] | MIC [5] [µg/mL]
1 | Fc1cc(Nc2nc(-c3ccccn3)cs2)cc(C(F)(F)F)c1 | 1 (≈ 2.95 µM) | 0.078 | 64 (≈ 189 µM) | 0.5 (≈ 1.47 µM) | 64 (≈ 189 µM)
2 | Cn1cc(-c2csc(Nc3cc(F)cc(C(F)(F)F)c3)n2)cn1 | 256 (≈ 748 µM) | 0.281 | > 256 | 256 (≈ 748 µM) | 256 (≈ 748 µM)
3 | CS(=O)(=O)c1ccc(Nc2nc(-c3ccc(F)cc3F)cs2)cc1 | 256 (≈ 699 µM) | 1.031 | > 256 | 256 (≈ 699 µM) | 256 (≈ 699 µM)
4 | Fc1ccc(-c2csc(Nc3ccc(C(F)(F)F)cc3Cl)n2)c(F)c1 | 256 (≈ 655 µM) | 1.031 | > 256 | 256 (≈ 655 µM) | 256 (≈ 655 µM)
5 | C/C(=N\Nc1ncccc1Cl)c1csc(Nc2cc(F)cc(C(F)(F)F)c2)n1 | 2 (≈ 4.65 µM) | 0.094 | 128 (≈ 298 µM) | 1 (≈ 2.33 µM) | 4 (≈ 9.31 µM)
6 | Fc1ccc(-c2csc(Nc3ccccc3C(F)(F)F)n2)c(F)c1 | 8 (≈ 22.5 µM) | 0.156 | > 256 | 8 (≈ 22.5 µM) | 4 (≈ 11.2 µM)
7 | Fc1ccc(-c2csc(Nc3cc(Cl)cc(C(F)(F)F)c3)n2)c(F)c1 | 4 (≈ 10.2 µM) | 0.156 | > 256 | 4 (≈ 10.2 µM) | 2 (≈ 5.12 µM)
8 | Oc1cc(Nc2nc(-c3ccc(F)cc3F)cs2)cc(C(F)(F)F)c1 | 1 (≈ 2.69 µM) | 0.25 | > 256 | 0.5 (≈ 1.34 µM) | 256 (≈ 688 µM)
9 | CCOc1ccc(Nc2nc(-c3ccc(F)cc3F)cs2)cc1C(F)(F)F | 8 (≈ 20 µM) | 0.094 | > 256 | 4 (≈ 9.99 µM) | 4 (≈ 9.99 µM)
10 | Cc1ccc(C(F)(F)F)cc1Nc1nc(-c2ccc(F)cc2F)cs1 | 256 (≈ 691 µM) | 0.093 | > 256 | 2 (≈ 5.4 µM) | 256 (≈ 691 µM)
11 | C/C(=N\Nc1ccccc1)c1csc(Nc2cc(F)cc(C(F)(F)F)c2)n1 | 16 (≈ 40.6 µM) | 0.375 | 64 (≈ 162 µM) | 16 (≈ 40.6 µM) | 16 (≈ 40.6 µM)
12 | Fc1cc(Nc2nc(-c3cccs3)cs2)cc(C(F)(F)F)c1 | 64 (≈ 186 µM) | 0.187 | > 256 | 4 (≈ 11.6 µM) | 8 (≈ 23.2 µM)
13 | COc1cc(Nc2nc(-c3ccc(F)cc3F)cs2)ccc1C(F)(F)F | 2 (≈ 5.18 µM) | 0.187 | > 256 | 2 (≈ 5.18 µM) | 2 (≈ 5.18 µM)
14 | Cc1cc(C(F)(F)F)ccc1Nc1nc(-c2ccc(F)cc2F)cs1 | 256 (≈ 691 µM) | 0.094 | > 256 | 4 (≈ 10.8 µM) | 256 (≈ 691 µM)
15 | C/C(=N\Nc1cc(O)ncn1)c1csc(Nc2cc(F)cc(C(F)(F)F)c2)n1 | 128 (≈ 310 µM) | 0.562 | > 256 | 256 (≈ 621 µM) | 256 (≈ 621 µM)
16 | Fc1cc(Nc2nc(-c3ccc(F)cc3F)cs2)cc(C(F)(F)F)c1 | 2 (≈ 5.34 µM) | 0.062 | > 256 | 2 (≈ 5.34 µM) | 2 (≈ 5.34 µM)
17 | Fc1cc(Nc2nc(-c3cc4ccccc4o3)cs2)cc(C(F)(F)F)c1 | 1 (≈ 2.64 µM) | 0.187 | > 256 | 2 (≈ 5.29 µM) | 2 (≈ 5.29 µM)
18 | Fc1ccc(-c2csc(Nc3ccc(C(F)(F)F)cc3F)n2)c(F)c1 | 256 (≈ 684 µM) | 1.031 | > 256 | 256 (≈ 684 µM) | 256 (≈ 684 µM)

Row | Structure (SMILES) | MIC [1] [µg/mL] | fractional inhibitory concentration index (FICI) [2] | MIC [3] [µg/mL] | MIC [4] [µg/mL] | MIC [5] [µg/mL]
19 | Fc1cc(Nc2nc(C3CCOCC3)cs2)cc(C(F)(F)F)c1 | 64 (≈ 185 µM) | 1.031 | > 256 | 64 (≈ 185 µM) | 128 (≈ 370 µM)
20 | Fc1ccc(-c2csc(Nc3ccc(Cl)c(C(F)(F)F)c3)n2)c(F)c1 | 1 (≈ 2.56 µM) | 0.094 | > 256 | 1 (≈ 2.56 µM) | 2 (≈ 5.12 µM)
21 | C/C(=N\NC1=NCCN1)c1csc(Nc2cc(F)cc(C(F)(F)F)c2)n1 | 16 (≈ 41.4 µM) | 0.75 | > 256 | 8 (≈ 20.7 µM) | 16 (≈ 41.4 µM)
22 | Fc1ccc(-c2csc(Nc3cc(C(F)(F)F)cc(C(F)(F)F)c3)n2)c(F)c1 | 4 (≈ 9.43 µM) | 0.094 | > 256 | 4 (≈ 9.43 µM) | 4 (≈ 9.43 µM)
23 | Fc1cc(Nc2nc(-c3ccncc3)cs2)cc(C(F)(F)F)c1 | 64 (≈ 189 µM) | 1.031 | 128 (≈ 377 µM) | 256 (≈ 754 µM) | 256 (≈ 754 µM)
24 | CC(C)(C)c1csc(Nc2cc(F)cc(C(F)(F)F)c2)n1 | 8 (≈ 25.1 µM) | 0.156 | > 256 | 4 (≈ 12.6 µM) | 8 (≈ 25.1 µM)
25 | O=C(Nc1ccccn1)c1csc(Nc2cc(F)cc(C(F)(F)F)c2)n1 | 256 (≈ 670 µM) | 0.281 | 64 (≈ 167 µM) | 256 (≈ 670 µM) | 256 (≈ 670 µM)
26 | Fc1cc(Nc2nc(C3CC3)cs2)cc(C(F)(F)F)c1 | 32 (≈ 106 µM) | 0.187 | > 256 | 16 (≈ 52.9 µM) | 8 (≈ 26.5 µM)
27 | Fc1ccc(-c2csc(Nc3cccnc3)n2)c(F)c1 | 128 (≈ 442 µM) | 1.031 | 128 (≈ 442 µM) | 256 (≈ 885 µM) | 256 (≈ 885 µM)
28 | Fc1ccc(-c2csc(Nc3ccccn3)n2)c(F)c1 | 256 (≈ 885 µM) | 1.031 | 64 (≈ 221 µM) | 256 (≈ 885 µM) | 256 (≈ 885 µM)
29 | Fc1cc(Nc2nc(-c3cccnc3)cs2)cc(C(F)(F)F)c1 | 64 (≈ 189 µM) | 1.031 | 128 (≈ 377 µM) | 256 (≈ 754 µM) | 256 (≈ 754 µM)
30 | Fc1cc(Nc2nc(-c3ccco3)cs2)cc(C(F)(F)F)c1 | 8 (≈ 24.4 µM) | 0.187 | > 256 | 4 (≈ 12.2 µM) | 8 (≈ 24.4 µM)
31 | Fc1ccc(-c2csc(Nc3ccncc3)n2)c(F)c1 | 4 (≈ 13.8 µM) | 1.031 | 128 (≈ 442 µM) | 4 (≈ 13.8 µM) | 32 (≈ 111 µM)
32 | C/C(=N\Nc1cnccn1)c1csc(Nc2cc(F)cc(C(F)(F)F)c2)n1 | 64 (≈ 161 µM) | 0.75 | 128 (≈ 323 µM) | 256 (≈ 646 µM) | 128 (≈ 323 µM)
33 | Oc1ccc(Nc2nc(-c3ccc(F)cc3F)cs2)cc1C(F)(F)F | 4 (≈ 10.7 µM) | 0.187 | > 256 | 2 (≈ 5.37 µM) | 2 (≈ 5.37 µM)
34 | C/C(=N\NC(=N)N)c1csc(Nc2cc(F)cc(C(F)(F)F)c2)n1 | 8 (≈ 22.2 µM) | 0.75 | > 256 | 4 (≈ 11.1 µM) | 8 (≈ 22.2 µM)
35 | C/C(=N\Nc1ccc(C(=O)O)cn1)c1csc(Nc2cc(F)cc(C(F)(F)F)c2)n1 | 64 (≈ 146 µM) | 1.031 | > 256 | 64 (≈ 146 µM) | 128 (≈ 291 µM)
36 | C/C(=N\Nc1ccc(Cl)nn1)c1csc(Nc2cc(F)cc(C(F)(F)F)c2)n1 | 64 (≈ 149 µM) | 0.75 | > 256 | 256 (≈ 594 µM) | 256 (≈ 594 µM)
